Data on 2 compounds can be found in BindingDB's records for doi:10.1016/j.bmcl.2017.07.010 (De Montfort University, 2017).

The nature of the series: Inhibition of human CYP1B1 transfected in HEK293 cells assessed as cisplatin EC50 at 6 times IC50 by MTT assay (Rvb = 65 uM). (Formazan colour is commonly taken as a measure of viable cells.)

SMILES strings stand for the structures.

What is called EC50 is the concentration at which the effect is half-maximal. For the compound `COc1ccccc1/C=C/C(=O)c1ccc[nH]1`, the EC50 turned out to be 10 µM.
With `O=C(/C=C/c1ccccc1Cl)c1ccc[nH]1`, the EC50 was 10 µM.
